From PubChem BioAssay (NCI) come the findings set out here.

Where “and” joins values, the source holds several entries; their conditions need not be identical. Identical values can stand only once.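 Exposure lasted 48 hours, with cells grown in 96-well plates and compounds tested at five concentrations. The concentration for 50% growth inhibition is given as GI50. TGI: concentration producing complete growth inhibition.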 Where a SMILES comes first, the peptide text is derived from it. The star is where a group is joined. Trt = c1ccc(C(c2ccccc2)(c2ccccc2)*)cc1; Cbz = O=C(OCc1ccccc1)*

What all share (assay): DTP human tumour cell line panel, 48 h
For assay [1], the system named is BT-549 breast.
The test system of assay [2] is UACC-62 melanoma.
For assay [3], the system named is OVCAR-5 ovarian.
The test system of assay [4] is SK-OV-3 ovarian.
Assay [5] has as its system MOLT-4 leukemia.
Assay [6] concerns IGROV1 ovarian.
The test system of assay [7] is HOP-92 NSCLC.
The subject of assay [8] is RPMI-8226 leukemia.
The subject of assay [9] is HCT-15 colon.
Assay [10] relates to HT29 colon.

`CCCCCCCCCCCCCCCCOCC(O)CO` (stereo not given): the concentration for total growth inhibition (TGI) in assay [1] worked out at 47 µM; in assay [2], 35.2 µM; in [3], 52.2 µM; in assay [4] it was 31.3 µM; in assay [5], 29.6 µM; in assay [6], 31.1 µM. The TGI stood at 41.9 µM in [7], 37.4 µM in assay [8], 35.9 µM in assay [9] and 31.8 µM in [10].
Regarding `COC(=O)C(CSC(c1ccccc1)(c1ccccc1)c1ccccc1)NC(=O)C(CC(N)=O)NC(=O)OCc1ccccc1` (stereo not drawn) (Cbz-Asn-Cys(Trt)-OMe; configuration not given here), the GI50 in [1] is 14.8 µM; in assay [2], 3.15 µM; in [3], 7.23 µM; in assay [4], 2.42 µM; in assay [5], 2.1 µM; in assay [6], 6.1 µM. Also, the GI50 in [7] is 2.64 µM; in assay [8] it was 2.29 µM; in assay [9] it was 3.81 µM; in assay [10] it was 5.03 µM. The concentration for total growth inhibition (TGI) was 35.7 µM in assay [1]; 14.1 µM in assay [2]; 20.2 µM in assay [3]; 10.2 µM in assay [4]; 5.2 µM in [5]; 25.7 µM in [6]. Further, the concentration for total growth inhibition (TGI) in assay [7] was found to be 14.9 µM; in assay [8], 5.93 µM; in [9], 14.1 µM; in assay [10], 17.2 µM.
With `Cc1c(Cl)cccc1NC(=O)c1sc2nc3c(cc2c1N)CCCC3`, the GI50 is 0.591 µM in [1]; 0.6 µM in assay [2]; > 100 µM in assay [3]; 0.444 µM in assay [4]; 0.481 µM in [5]; 0.82 µM in assay [6]. The GI50 is 0.994 µM in assay [7], 1.61 µM in [8], 0.392 µM in assay [9] and 0.369 µM in [10]. Further, the TGI in assay [1], in assay [2], in assay [3], in assay [4], in assay [5] and in assay [6] was > 100 µM each time. For the same compound, the total growth inhibition concentration (TGI) in assay [7], in assay [8], in [9] and in assay [10] was > 100 µM in each case.
On to `Cc1ccc(-c2n[nH]c(=O)c3noc(-c4ccc(C)cc4)c23)cc1`, for which the GI50 in assay [1] is 1.33 µM; in [2], 0.718 µM; in assay [3] it was 5.99 µM; in [4], 1.51 µM; in assay [5] it was 1.95 µM; in [6], 1.89 µM. Besides, the GI50 was 0.194 µM in [7], 0.616 µM in assay [8], 0.651 µM in [9] and 0.4 µM in [10]. The concentration for total growth inhibition (TGI) was 12.8 µM in assay [1]; 56.5 µM in assay [2]; > 100 µM in [3]; 11.5 µM in [4]; > 100 µM in assay [5]; 28.6 µM in [6]. Also, the TGI in assay [7] was 0.962 µM; in assay [8] it was > 100 µM; in assay [9] it was > 100 µM; in [10], 15.8 µM.
As to `Cn1cc(-c2nc(N[C@@H]3CCCC[C@@H]3N)c(F)c3c2C(=O)NC3)cn1`, the GI50 was 6.47 µM and 10 µM in assay [1]; 10.4 µM and 13.1 µM in [2]; 7.14 µM and 8.43 µM in assay [3]; 4.06 µM and 3.77 µM in [4]; 4.74 µM and 6.87 µM in assay [5]; 5 µM and 5.65 µM in assay [6]. Further, the GI50 is 3.62 µM and 4.47 µM in assay [7]; 26.2 µM and 29.1 µM in assay [8]; 12 µM and 13.3 µM in [9]; 4.33 µM and 5.99 µM in [10]. The total growth inhibition concentration (TGI) in assay [1] is 21.3 µM and 29.7 µM; in assay [2] it was > 100 µM; in [3], > 100 µM; in assay [4], 40.1 µM and 43.8 µM; in assay [5] it was > 80.2 µM and 98.9 µM; in assay [6], > 68.9 µM. The concentration for total growth inhibition (TGI) in assay [7] is 23.9 µM and 29.1 µM; in [8] it was > 100 µM; in assay [9] it was > 100 µM; in assay [10], 81.5 µM and > 94.4 µM.
Take `O=C(Cc1ccccc1)NN1C(=O)/C(=C\c2ccccc2O)SC1=Nc1ccccc1`: the concentration for total growth inhibition (TGI) in [1], in [2], in assay [3], in assay [4], in assay [5] and in [6] was > 100 µM in each case. For the same compound, the concentration for total growth inhibition (TGI) in assay [7], in [8], in [9] and in assay [10] was > 100 µM in each case.
In the case of `Cc1cc2nc3c4ccc(Br)cc4n(CCN(C)C)c3nc2cc1C`, the GI50 is 1.71 µM in assay [1]; 1.82 µM in [2]; 1.99 µM in assay [3]; 2.65 µM in [4]; 0.412 µM in [5]; 1.12 µM in assay [6]. The GI50 in [7] is 1.3 µM; in [8], 2.16 µM; in assay [9] it was 0.751 µM; in assay [10], 0.664 µM. The TGI in [1] was 3.75 µM; in [2] it was 3.68 µM; in assay [3], 5.88 µM; in assay [4], 12.7 µM; in assay [5] it was 5.62 µM; in assay [6], 3.97 µM. Besides, the TGI was found to be 5.28 µM in assay [7], 5.93 µM in [8], 6.24 µM in [9] and 2.89 µM in assay [10].
On to `COc1ccc(-c2nc(C(=O)c3ccccc3)n(CC(=O)c3ccc(Cl)cc3)c2-c2ccc(OC)cc2)cc1`, for which the GI50 in assay [1] is 85.6 µM; in assay [2], > 100 µM; in assay [3], > 100 µM; in assay [4], > 100 µM; in [5], > 100 µM; in [6] it was > 100 µM. Further, the GI50 in assay [7], in [8], in [9] and in [10] was > 100 µM throughout. The TGI in assay [1], in assay [2], in assay [3], in assay [4], in [5] and in assay [6] was > 100 µM each time. Besides, the total growth inhibition concentration (TGI) in assay [7], in [8], in assay [9] and in assay [10] was > 100 µM in each case.

For orientation: TGI means the concentration giving total growth inhibition. A lower TGI goes with more potent growth arrest. For orientation: GI50 means the concentration giving 50% growth inhibition.
